# Patent US6274715A, “Tricyclic erythromycin derivatives” (priority 1997, dated 2001)
# How the values were obtained:
# Type in all cases: cell-based
# [1] = test system: STAPHYLOCOCCUS AUREUS ATCC 6538P; assay: In vitro antibacterial activity, MIC, BHI agar dilution; conditions: S. aureus ATCC 6538P, 35-37° C., 20 to 24 hours, unit assumed
# [2] = test system: STAPHYLOCOCCUS AUREUS A5177; assay: as above; conditions: S. aureus A5177, unit assumed
# [3] = test system: STAPHYLOCOCCUS AUREUS A-5278; assay: as above; conditions: S. aureus A-5278, unit assumed
# [4] = test system: STAPHYLOCOCCUS AUREUS CMX 642A; assay: as above; conditions: S. aureus CMX 642A, unit assumed
# [5] = test system: STAPHYLOCOCCUS AUREUS NCTC10649M; assay: as above; conditions: S. aureus NCTC10649M, unit assumed
# [6] = test system: STAPHYLOCOCCUS AUREUS CMX 553; assay: as above; conditions: S. aureus CMX 553, unit assumed
# [7] = test system: STAPHYLOCOCCUS AUREUS 1775; assay: as above; conditions: S. aureus 1775, unit assumed
# [8] = test system: STAPHYLOCOCCUS EPIDERMIDIS 3519; conditions: S. epidermidis 3519; BHI agar; unit assumed
# EN[…] ATCC 8043 = assay: In vitro antibacterial activity, MIC, BHI agar dilution; conditions: E. faecium ATCC 8043, unit assumed
# How it was run: (§1)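 MIC was read visually as the lowest drug concentration showing no growth, a slight haze or sparsely isolated colonies relative to a compound-free BHI plate. Plates held serial aqueous dilutions in BHI agar, were spot-inoculated with 1:100 (or 1:10) culture dilutions and incubated 20 to 24 hours at 35-37° C.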
# M[…] ATCC 4698 = assay: as above; conditions: M. luteus ATCC 4698, unit assumed
# How it was run: as §1
# M[…] ATCC 9341 = assay: as above; conditions: M. luteus ATCC 9341, unit assumed
# How it was run: as §1
# STR[…] 508 = assay: as above; conditions: S. agalactiae CMX 508, unit assumed
# How it was run: as §1
# [9] = test system: STREPTOCOCCUS BOVIS A-5169; assay: as above; conditions: S. bovis A-5169, unit assumed
# [10] = test system: STREPTOCOCCUS PYOGENES EES61; assay: as above; conditions: S. pyogenes EES61, unit assumed
# [11] = test system: STREPTOCOCCUS PYOGENES 930; assay: as above; conditions: S. pyogenes 930, unit assumed
# [12] = test system: STREPTOCOCCUS PYOGENES PIU 2548; assay: as above; conditions: S. pyogenes PIU 2548, unit assumed
# ESCHERICHIA COLI JUHL = conditions: E. coli JUHL; BHI agar; unit assumed
# ESCHERICHIA COLI SS = assay: In vitro antibacterial activity, MIC, BHI agar dilution; conditions: E. coli SS, unit assumed
# ESCHERICHIA COLI DC-2 = assay: as above; conditions: E. coli DC-2, unit assumed
# ESCHERICHIA COLI H560 = assay: as above; conditions: E. coli H560, unit assumed
# ESCHERICHIA COLI KNK 437 = conditions: E. coli KNK 437; BHI agar; unit assumed
# [13] = test system: ENTEROBACTER AEROGENES ATCC 13048; assay: In vitro antibacterial activity, MIC, BHI agar dilution; conditions: E. aerogenes ATCC 13048, unit assumed
# [14] = test system: KLEBSIELLA PNEUMONIAE ATCC 8045; assay: as above; conditions: K. pneumoniae ATCC 8045, unit assumed
# [15] = test system: PROVIDENCIA STUARTII CMX 640; conditions: P. stuartii CMX 640; BHI agar; unit assumed
# [16] = test system: PSEUDOMONAS AERUGINOSA BMH10; assay: In vitro antibacterial activity, MIC, BHI agar dilution; conditions: P. aeruginosa BMH10, unit assumed
# [17] = test system: PSEUDOMONAS AERUGINOSA 5007; assay: as above; conditions: P. aeruginosa 5007, unit assumed
# [18] = test system: PSEUDOMONAS AERUGINOSA K799/WT; assay: as above; conditions: P. aeruginosa K799/WT, unit assumed
# [19] = test system: PSEUDOMONAS AERUGINOSA K799/61; assay: as above; conditions: P. aeruginosa K799/61, unit assumed
# PSEUDOMONAS CEPACIA 296I = assay: as above; conditions: P. cepacia 296I, unit assumed
# [20] = test system: ACINETOBACTER CALCOACETICUS CMX 669; assay: as above; conditions: A. calcoaceticus CMX 669, unit assumed
# [21] = test system: PSEUDOMONAS AERUGINOSA DPHD-5263; assay: as above; conditions: P. aeruginosa DPHD-5263, unit assumed
# [22] = test system: PSEUDOMONAS AERUGINOSA DPHD-2862; assay: as above; conditions: P. aeruginosa DPHD-2862, unit assumed
# CANDIDA ALBICANS CCH 442 = assay: as above; conditions: C. albicans CCH 442, unit assumed
# [23] = test system: MYCOBACTERIUM SMEGMATIS ATCC 114; assay: as above; conditions: M. smegmatis ATCC 114, unit assumed
SMILES,MIC [1] [µg/mL],MIC [2] [µg/mL],MIC [3] [µg/mL],MIC [4] [µg/mL],MIC [5] [µg/mL],MIC [6] [µg/mL],MIC [7] [µg/mL],MIC [8] [µg/mL],MIC (EN[…] ATCC 8043) [µg/mL],MIC (M[…] ATCC 4698) [µg/mL],MIC (M[…] ATCC 9341) [µg/mL],MIC (STR[…] 508) [µg/mL],MIC [9] [µg/mL],MIC [10] [µg/mL],MIC [11] [µg/mL],MIC [12] [µg/mL],MIC (ESCHERICHIA COLI JUHL) [µg/mL],MIC (ESCHERICHIA COLI SS) [µg/mL],MIC (ESCHERICHIA COLI DC-2) [µg/mL],MIC (ESCHERICHIA COLI H560) [µg/mL],further results
CC[C@H]1OC(=O)[C@H](C)C(=O)[C@H](C)[C@@H](O[C@@H]2O[C@H](C)C[C@H](N(C)C)[C@H]2O)[C@](C)(OC)C[C@@H](C)C2=N[C@H](COCc3ccnc4ccccc34)CN3C(=O)O[C@@]1(C)[C@H]3[C@H]2C [Example 85],0.2,0.2,> 100,0.2,0.39,0.2,> 100,0.2,0.02,0.78,0.02,0.02,0.01,≤ 0.005,100,0.1,> 100,0.78,> 100,> 100,MIC (ESCHERICHIA COLI KNK 437): > 100 µg/mL; MIC [13]: > 100 µg/mL; MIC [14]: > 100 µg/mL; MIC [15]: > 100 µg/mL; MIC [16]: > 100 µg/mL; MIC [17]: > 100 µg/mL; MIC [18]: > 100 µg/mL; MIC [19]: 3.1 µg/mL; MIC (PSEUDOMONAS CEPACIA 296I): 100 µg/mL; MIC [20]: 100 µg/mL; MIC [21]: > 100 µg/mL; MIC [22]: > 100 µg/mL; MIC (CANDIDA ALBICANS CCH 442): > 100 µg/mL; MIC [23]: 3.1 µg/mL
CC[C@H]1OC(=O)[C@H](C)C(=O)[C@H](C)[C@@H](O[C@@H]2O[C@H](C)C[C@H](N(C)C)[C@H]2O)[C@](C)(OC)C[C@@H](C)C2=N[C@H](COCCN3CCOCC3)CN3C(=O)O[C@@]1(C)[C@H]3[C@H]2C [Example 87],1.56,1.56,> 100,1.56,1.56,1.56,> 100,1.56,0.39,1.56,0.1,0.2,0.05,0.2,> 100,3.1,> 100,1.56,> 100,> 100,MIC (ESCHERICHIA COLI KNK 437): > 100 µg/mL; MIC [13]: > 100 µg/mL; MIC [14]: > 100 µg/mL; MIC [15]: > 100 µg/mL; MIC [16]: > 100 µg/mL; MIC [17]: > 100 µg/mL; MIC [18]: > 100 µg/mL; MIC [19]: 3.1 µg/mL; MIC (PSEUDOMONAS CEPACIA 296I): > 100 µg/mL; MIC [20]: > 100 µg/mL; MIC [21]: > 100 µg/mL; MIC [22]: > 100 µg/mL; MIC (CANDIDA ALBICANS CCH 442): > 100 µg/mL; MIC [23]: 12.5 µg/mL
CCC1OC(=O)C(C)C(=O)C(C)C(OC2OC(C)CC(N(C)C)C2O)C(C)(OC)CC(C)C2=NC(CCOc3ccccc3)CN3C(=O)OC1(C)C3C2C (stereo not shown) [Example 91],0.78,0.78,> 100,0.78,0.78,0.78,> 100,0.78,0.1,0.39,0.1,0.05,0.01,0.05,100,0.39,> 100,3.1,> 100,> 100,MIC (ESCHERICHIA COLI KNK 437): > 100 µg/mL; MIC [13]: > 100 µg/mL; MIC [14]: > 100 µg/mL; MIC [15]: > 100 µg/mL; MIC [16]: > 100 µg/mL; MIC [17]: > 100 µg/mL; MIC [18]: > 100 µg/mL; MIC [19]: 12.5 µg/mL; MIC (PSEUDOMONAS CEPACIA 296I): > 100 µg/mL; MIC [20]: > 100 µg/mL; MIC [21]: > 100 µg/mL; MIC [22]: > 100 µg/mL; MIC (CANDIDA ALBICANS CCH 442): > 100 µg/mL; MIC [23]: 1.56 µg/mL
CCC1OC(=O)C(C)C(=O)C(C)C(OC2OC(C)CC(N(C)C)C2O)C(C)(OC)CC(C)C2=NC(COCc3cc(OC)cc(OC)c3)CN3C(=O)OC1(C)C3C2C (stereo not shown) [Example 100],0.1,0.1,> 100,0.2,0.05,0.1,> 100,0.2,0.01,0.1,< 0.005,0.01,0.01,0.01,100,0.2,> 100,1.56,> 100,50,MIC (ESCHERICHIA COLI KNK 437): > 100 µg/mL; MIC [13]: > 100 µg/mL; MIC [14]: > 100 µg/mL; MIC [15]: > 100 µg/mL; MIC [16]: > 100 µg/mL; MIC [17]: > 100 µg/mL; MIC [18]: > 100 µg/mL; MIC [19]: 1.56 µg/mL; MIC (PSEUDOMONAS CEPACIA 296I): 100 µg/mL; MIC [20]: 100 µg/mL; MIC [21]: > 100 µg/mL; MIC [22]: > 100 µg/mL; MIC (CANDIDA ALBICANS CCH 442): > 100 µg/mL; MIC [23]: 0.78 µg/mL
